Inhibition and Kd data for seven compounds are collected here from article PMC5359181 (Protein & Cell, 2016).

Where two headings read alike, the source gives them in different places. Some results are limits rather than exact numbers.

The target in assay [1] is T1, human equilibrative nucleoside transporter 1 (hENT1) (Homo sapiens, UniProt Q99808, N48Q).
T1 construct: gene SLC29A1; full-length, residues 1-456
T1 sequence (Q99808 1-456 N48Q): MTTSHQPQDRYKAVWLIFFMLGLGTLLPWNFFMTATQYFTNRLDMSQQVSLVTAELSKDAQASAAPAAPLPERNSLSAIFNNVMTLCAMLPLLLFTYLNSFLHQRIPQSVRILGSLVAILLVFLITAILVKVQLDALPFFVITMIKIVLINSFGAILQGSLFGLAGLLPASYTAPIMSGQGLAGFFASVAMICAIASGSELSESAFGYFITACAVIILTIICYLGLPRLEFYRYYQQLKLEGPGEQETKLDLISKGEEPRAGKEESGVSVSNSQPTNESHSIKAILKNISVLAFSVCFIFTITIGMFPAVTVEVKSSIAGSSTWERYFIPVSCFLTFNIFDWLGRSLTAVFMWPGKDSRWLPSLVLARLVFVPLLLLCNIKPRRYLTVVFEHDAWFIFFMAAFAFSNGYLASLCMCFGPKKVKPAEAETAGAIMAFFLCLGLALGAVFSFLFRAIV
Kind of assay: proteoliposome competition assay with 3H-adenosine, […] reduction at […]. Type of assay: biochemical. The settings on record: read-out: % reduction at 500 μmol/L.

Assay [2] has as its target T1, human equilibrative nucleoside transporter 1 (hENT1). Kind of assay: ITC. Type of assay: binding.

As for `Cc1cn([C@@H]2O[C@H](CO)[C@@H](O)[C@H]2O)c(=O)[nH]c1=O` [5-methyluridine], the inhibition at 500 µM in assay [1] was over 90%.

In assay [2], `Nc1ncnc2nc[nH]c12` [adenine] gave a Kd of 5000 ± 500 µM.

Consider `Nc1ncnc2c1ncn2[C@H]1C[C@H](O)[C@@H](CO)O1` [deoxyadenosine], for which the Kd in assay [2] (read-out: Kd) was 190 ± 40 µM.

Regarding `Nc1nc2c(ncn2[C@H]2C[C@H](O)[C@@H](CO)O2)c(=O)[nH]1` [deoxyguanosine], in assay [1], the inhibition at 500 µM was over 90%.

On to `O=c1ccn([C@H]2C[C@H](O)[C@@H](CO)O2)c(=O)[nH]1` [deoxyuridine], for which, in assay [1], the inhibition at 500 µM is over 90%.

`Cc1cn([C@H]2C[C@H](O)[C@@H](CO)O2)c(=O)[nH]c1=O` [thymidine]: the inhibition at 500 µM in assay [1] was over 90%.

On to `O=c1ccn([C@@H]2O[C@H](CO)[C@@H](O)[C@H]2O)c(=O)[nH]1` [uridine], for which, in assay [1], the inhibition at 500 µM was over 90%.

By Kd is commonly meant the concentration at which binding is half-saturated.
